Experiment: recombinant barcode read abundance after kanamycin selection (control-corrected) (log10(CPM+1)); higher = more efficient recombination; sequences stand for … in AGTGCAGAGAAAATCGGCCAGTTTTCTCTGCCTGCAGTCCGCATGCCGT…AGATTTATGCAGCGGACTGCCTTTCTCCCAAAGTGATAAACCGGACAGTATCATGGACCGGTTTTCCCGGTAATCCGTATTTGCAAGGTTGGTTTCACT; site = the 11-nt target
Outline: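 Recombination efficiency draws on barcodes counted at recombinant junctions in a pooled E. coli screen of targets paired with IS621 bridge RNA target-binding loops. The counts were converted to counts per million, averaged and corrected against the chloramphenicol/ampicillin LB agar control, then reported as log10(CPM+1). Selection plates held chloramphenicol/ampicillin/kanamycin with 0.1 mM IPTG, with two replicates per condition.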
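Note: IS621 recombinase and bridge RNA in Escherichia coli cells.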

Sequence | recombinant barcode read abundance (log10)
GTAAGTTCTTGGGTTCTAACCTGTTGCCT (site GCAAGTTCTAG) | 0.258
GTAAGTTCTTGGGTTCTAACCTGTTGCCT (site GGAAGTTCTAG) | 0.0929
GTAAGTTCTTGGGTTCTAACCTGTTGCCT (site GTAAGTTCTAG) | 1.11
GTAATAGCTTGGGTTCTAACCTGTTGCAT (site ATAATAGCTAT) | 0.695
GTAATAGCTTGGGTTCTAACCTGTTGCAT (site GTAATAGCTAT) | 2
GTAATCCCTTGGGTTCTAACCTGTTGCCG (site GTAATCCCTCG) | 1.76
GTAATCCCTTGGGTTCTAACCTGTTGCCG (site GTAATCCCTTG) | 0.572
GTAATTGCTTGGGTTCTAACCTGTTGCCT (site GTAAATGCTAG) | 0.184
GTAATTGCTTGGGTTCTAACCTGTTGCCT (site GTAACTGCTAG) | 0.519
GTAATTGCTTGGGTTCTAACCTGTTGCCT (site GTAAGTGCTAG) | 0.0962
GTAATTGCTTGGGTTCTAACCTGTTGCCT (site GTAATTGCTAG) | 0.918
GTACAATCTTGGGTTCTAACCTGTTGCAG (site CATAGTCCTTG) | 0
GTACAATCTTGGGTTCTAACCTGTTGCAG (site GTACAATCTCT) | 0.632
GTACGACCTTGGGTTCTAACCTGTTGCAC (site AACAAGACTAG) | 0.189
GTACGACCTTGGGTTCTAACCTGTTGCAC (site GTACGACCTGT) | 1.91
GTACGTACTTGGGTTCTAACCTGTTGCCT (site ATACGTACTAG) | 0.0704
GTACGTACTTGGGTTCTAACCTGTTGCCT (site CTACGTACTAG) | 0.283
GTACGTACTTGGGTTCTAACCTGTTGCCT (site GTACGTACTAG) | 0.586
GTACGTACTTGGGTTCTAACCTGTTGCCT (site TTACGTACTAG) | 0.777

Sequence | recombinant barcode read abundance (log10)
GTACGTCCTTGGGTTCTAACCTGTTGCGT (site GTACGTCCTAA) | 0.0527
GTACGTCCTTGGGTTCTAACCTGTTGCGT (site GTACGTCCTAC) | 2.36
GTACGTCCTTGGGTTCTAACCTGTTGCGT (site GTACGTCCTAG) | 0.0549
GTACGTCCTTGGGTTCTAACCTGTTGCGT (site GTACGTCCTAT) | 0.764
GTAGACCCTTGGGTTCTAACCTGTTGCCG (site GTAGACCCTCG) | 2.32
GTAGACCCTTGGGTTCTAACCTGTTGCCG (site GTTGACCCTAG) | 0.476
GTATCCGCTTGGGTTCTAACCTGTTGCCA (site CGGCTGCCTCC) | 0.0649
GTATCCGCTTGGGTTCTAACCTGTTGCCA (site GTATCCGCTTG) | 1.55
GTATGAGCTTGGGTTCTAACCTGTTGCCA (site GTATGAGCTTG) | 0.906
GTATGAGCTTGGGTTCTAACCTGTTGCCA (site TTATAAGCTTG) | 0.0331
GTATGAGCTTGGGTTCTAACCTGTTGCGG (site GTATGAGCTCC) | 2.06
GTATGAGCTTGGGTTCTAACCTGTTGCGG (site GTATGTGCTCC) | 0.255
GTATGCTCTTGGGTTCTAACCTGTTGCGT (site GTATCCTCTAT) | 0.11
GTATGCTCTTGGGTTCTAACCTGTTGCGT (site GTATGCTCTAC) | 1.17
GTCAACCCTTGGGTTCTAACCTGTTGCGG (site GTAAACCCTCC) | 0.886
GTCAACCCTTGGGTTCTAACCTGTTGCGG (site GTCAACCCTCC) | 2.33
GTCAAGACTTGGGTTCTAACCTGTTGCCG (site GTCAAGACTCG) | 1.94
GTCAAGACTTGGGTTCTAACCTGTTGCCG (site GTCAAGACTTG) | 0.462
GTCAAGCCTTGGGTTCTAACCTGTTGCTA (site GCCAAACCTTA) | 0.345
